Molecular target: T1, HCN3 channel (Homo sapiens, UniProt Q9P1Z3)
T1 construct: expressed in transfected cells; host or cells: HEK-293H
T1 sequence (Q9P1Z3 1-774): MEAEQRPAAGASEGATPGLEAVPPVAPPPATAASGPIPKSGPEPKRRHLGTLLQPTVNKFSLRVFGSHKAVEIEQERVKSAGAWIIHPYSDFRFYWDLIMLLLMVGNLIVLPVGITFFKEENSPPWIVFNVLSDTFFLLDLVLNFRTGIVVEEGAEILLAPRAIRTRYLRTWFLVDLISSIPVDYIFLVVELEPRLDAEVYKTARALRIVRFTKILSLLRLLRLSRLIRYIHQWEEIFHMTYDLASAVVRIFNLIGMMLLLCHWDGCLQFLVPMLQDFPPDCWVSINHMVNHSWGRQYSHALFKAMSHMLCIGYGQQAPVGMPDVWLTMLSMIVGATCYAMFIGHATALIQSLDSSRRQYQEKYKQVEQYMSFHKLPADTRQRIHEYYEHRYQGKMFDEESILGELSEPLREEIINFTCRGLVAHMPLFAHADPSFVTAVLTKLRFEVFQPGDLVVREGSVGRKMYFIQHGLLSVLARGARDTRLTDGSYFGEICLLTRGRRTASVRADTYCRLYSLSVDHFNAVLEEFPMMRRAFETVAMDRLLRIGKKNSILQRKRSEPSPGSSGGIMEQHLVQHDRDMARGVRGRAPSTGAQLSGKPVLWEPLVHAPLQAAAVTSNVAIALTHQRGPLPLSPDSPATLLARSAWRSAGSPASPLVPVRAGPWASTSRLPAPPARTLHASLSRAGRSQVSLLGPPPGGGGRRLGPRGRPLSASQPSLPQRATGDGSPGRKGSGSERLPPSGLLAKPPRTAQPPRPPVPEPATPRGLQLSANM
Test: MPSD FLIPR/FLEX 96 well hyperpolarization assay, HCN3
Format: cell-based
Details: HCN3 channel expressing HEK-293H cells, ZD7288 30 μM (FIG. 7A)
Protocol: The above-described assay was modified for use with the FLIPR®^96 or FLEX^96 96 well plate format. In brief, cells stably expressing HCN channels were plated at 40-80×10^3 cells/plate in 100-150 μl/well of DMEM supplemented with 10% fetal bovine serum, 1× NEAA, and 1× penicillin/streptomycin. Cells were cultured for 24-48 hours in a 5% CO2/air humidifiedincubator at 37° C. Cells were incubated in 30 μl/well of HBSS containing MPSD, as described above, for 15-45 minutes at room temperature.
Membrane potentials were measured at room temperature (21°-23°) using a FLIPR® system or a FLEXSTATION® (Molecular Devices of Sunnydale, Calif.). Control cells were incubated in HBSS/MPSD without a test agent. For identification of HCN channel modulators, cells were incubated in HBSS/MPSD and the presence of a test agent as described in Examples 5 and 6 herein below. […]
Cells were incubated in 30 μl HBSS supplemented with MPSD with or without 50 μM of the channel inhibitor ZD7288, dissolved in <1.0% dimethyl sulfoxide (DMSO) added to the HBSS solution. […] The change in fluorescence (ΔF) was measured for a total assay time of about 100 seconds. […]
FIG. 6A depicts the whole-plate screenshot of the changes in fluorescence/membrane potential over time. FIG. 7A depicts the change in fluorescence (F) over time for control cells (upper trace) and for cells exposed to ZD7288 at a concentration of 30 μM (lower trace). […]

## CCN(c1ccccc1)c1cc(=NC)n(C)c(C)n1.Cl [ZD7288]
  blockade of hyperpolarization (change in fluorescence): effectively blocked hyperpolarization

— US20090029366A1 (priority 2007, published 2009)
